From patent US9556143B2, “Metalloenzyme inhibitor compounds” (Viamet Pharmaceuticals, Inc., priority 2011, dated 2017) come the findings set out here.

For the assay, the system named is Puccinia recondita tritici = Puccinia triticina (PUCCRT). Description: Fungicidal activity vs. wheat leaf rust. It is filed as in vivo, Puccinia recondita tritici on wheat (variety Yuma). The following applies: % disease control @ 50 ppm, wheat seedlings sprayed, inoculated the following day, severity evaluated 7-9 days later, read-out: Puccinia Rating. The source says: D. Evaluation of Fungicidal Activity Vs. Leaf Rust (Causal Agent Puccinia recondita tritici=Puccinia triticina; Bayer code PUCCRT). […] Each pot contained 3-8 seedlings. These plants were sprayed until wet with the formulated test compounds. The compounds were formulated at 50 ppm in 10 vol. % acetone plus 90 vol. % Triton X water (deionized water 99.99 wt %+0.01 wt % Triton X100), giving a “formulated test compound.” Formulated test compounds were applied to plants using a turn table sprayer fitted with two opposing air atomization nozzles which delivered approximately 1500 L/ha of spray volume. On the following day, the leaves were inoculated with an aqueous spore suspension of Puccinia recondita tritici and the plants were kept in high humidity overnight to permit spores to germinate and infect the leaf. The plants were then transferred to a greenhouse until disease developed on untreated control plants. Disease severity was evaluated 7-9 days later, depending on the speed of disease development. In each case of Table 3, the Puccinia rating scale is as follows: […]

For the compound `OC(Cn1cnnn1)(c1ccc(F)cc1F)C(F)(F)c1ccccn1` (stereo not drawn) [2(−), 2-(2,4-Difluorophenyl)-1,1-difluoro-1-(pyridin-2-yl)-3-(1H-tetrazol-1-yl)propan-2-ol], the pest or weed control at 50 ppm fell in the range of 80 to 100%.
The figure for `OC(Cn1cnnn1)(c1ccc(F)cc1F)C(F)(F)c1ccc(Br)cn1` (stereo not drawn) [Compound 1, 1-(5-Bromopyridin-2-yl)-2-(2,4-difluorophenyl)-1,1-difluoro-3-(1H-tetrazol-1-yl)propan-2-ol] is 80 to 100%; for `OC(Cn1cnnn1)(c1ccc(F)cc1F)C(F)(F)c1ccc(/C=C/COCC(F)(F)F)cn1` (stereo not drawn) [Compound 6, (E)-2-(2,4-Difluorophenyl)-1,1-difluoro-3-(1H-tetrazol-1-yl)-1-(5-(3-(2,2,2-trifluoroethoxy)prop-1-en-1-yl)pyridin-2-yl)propan-2-ol] it is less than 40%.
The figure for `OC(Cn1cnnn1)(c1ccc(F)cc1F)C(F)(F)c1ccc(F)cn1` (stereo not drawn) [Compound 10, 2-(2,4-Difluorophenyl)-1,1-difluoro-1-(5-fluoropyridin-2-yl)-3-(1H-tetrazol-1-yl)propan-2-ol] is 80 to 100%; for `OC(Cn1cnnn1)(c1ccc(F)cc1F)C(F)(F)c1ccc(CC(F)(F)F)cn1` (stereo not drawn) [Compound 17, 2-(2,4-Difluorophenyl)-1,1-difluoro-3-(1H-tetrazol-1-yl)-1-(5-(2,2,2-trifluoroethyl)pyridin-2-yl)propan-2-ol] it is 80 to 100%; for `OC(Cn1cnnn1)(c1ccc(F)cc1F)C(F)(F)c1ccc(C2CC2)cn1` (stereo not drawn) [Compound 18, 1-(5-Cyclopropylpyridin-2-yl)-2-(2,4-difluorophenyl)-1,1-difluoro-3-(1H-tetrazol-1-yl)propan-2-ol] it is 80 to 100%.
With `OC(Cn1cnnn1)(c1ccc(Cl)cc1F)C(F)(F)c1ccc(Br)cn1` (stereo not drawn) [Compound 22, 1-(5-Bromopyridin-2-yl)-2-(4-chloro-2-fluorophenyl)-1,1-difluoro-3-(1H-tetrazol-1-yl)propan-2-ol], the pest or weed control at 50 ppm was in the range of 80 to 100%.
For `Cc1ccc(C(F)(F)C(O)(Cn2cnnn2)c2ccc(F)cc2F)nc1` (stereo not drawn) [Compound 25, 2-(2,4-Difluorophenyl)-1,1-difluoro-1-(5-methylpyridin-2-yl)-3-(1H-tetrazol-1-yl)propan-2-ol] the value was 80 to 100%.
The figure for `OC(Cn1cnnn1)(c1ccc(Cl)cc1F)C(F)(F)c1ccc(Cl)cn1` (stereo not drawn) [Compound 26, 2-(4-Chloro-2-fluorophenyl)-1-(5-chloropyridin-2-yl)-1,1-difluoro-3-(1H-tetrazol-1-yl)propan-2-ol] is 80 to 100%; for `OC(Cn1cnnn1)(c1ccc(Cl)cc1F)C(F)(F)c1ccc(F)cn1` (stereo not drawn) [Compound 27, 2-(4-Cloro-2-fluorophenyl)-1,1-difluoro-1-(5-fluoropyridin-2-yl)-3-(1H-tetrazol-1-yl)propan-2-ol] it is 80 to 100%; for `OC(Cn1cnnn1)(c1ccc(Cl)cc1F)C(F)(F)c1ccc(-n2nccn2)cn1` (stereo not drawn) [Compound 28, 1-(5-(2H-1,2,3-Triazol-2-yl)pyridin-2-yl)-2-(4-chloro-2-fluorophenyl)-1,1-difluoro-3-(1H-tetrazol-1-yl)propan-2-ol] it is 80 to 100%.
For `OC(Cn1cncn1)(c1ccc(F)cc1F)C(F)(F)c1ccc(Cl)cn1` (stereo not drawn) [Compound 29, 1-(5-Chloropyridin-2-yl)-2-(2,4-difluorophenyl)-1,1-difluoro-3-(1H-1,2,4-triazol-1-yl)propan-2-ol] the value was 80 to 100%; for `COc1ccc(-c2ccc(C(F)(F)C(O)(Cn3cnnn3)c3ccc(F)cc3F)nc2)s1` (stereo not drawn) [Compound 32, 2-(2,4-Difluorophenyl)-1,1-difluoro-1-(5-(5-methoxythiophen-2-yl)pyridin-2-yl)-3-(1H-tetrazol-1-yl)propan-2-ol], 40 to 59%; for `OC(Cn1cnnn1)(c1ccc(F)cc1F)C(F)(F)c1ccc(-c2ccc(C(F)F)s2)cn1` (stereo not drawn) [Compound 33, 1-(5-(5-(Difluoromethyl)thiophen-2-yl)pyridin-2-yl)-2-(2,4-difluorophenyl)-1,1-difluoro-3-(1H-tetrazol-1-yl)propan-2-ol], 80 to 100%.
Consider `OC(Cn1cnnn1)(c1ccc(F)cc1F)C(F)(F)c1ccc(-c2ccc(C(F)(F)F)s2)cn1` (stereo not drawn) [Compound 34, 2-(2,4-Difluorophenyl)-1,1-difluoro-3-(1H-tetrazol-1-yl)-1-(5-(5-(trifluoromethyl)thiophen-2-yl)pyridin-2-yl)propan-2-ol], for which the pest or weed control at 50 ppm lay within 80 to 100%.
The figure for `OC(Cn1cnnn1)(c1ccc(F)cc1F)C(F)(F)c1ccc(-c2nccs2)cn1` (stereo not drawn) [Compound 38, 2-(2,4-Difluorophenyl)-1,1-difluoro-3-(1H-tetrazol-1-yl)-1-(5-(thiazol-2-yl)pyridin-2-yl)propan-2-ol] is 80 to 100%.
For `OC(Cn1cnnn1)(c1ccc(Cl)cc1F)C(F)(F)c1ccc(CC(F)(F)F)cn1` (stereo not drawn) [Compound 39, 2-(4-Chloro-2-fluorophenyl)-1,1-difluoro-3-(1H-tetrazol-1-yl)-1-(5-(2,2,2-trifluoroethyl)pyridin-2-yl)propan-2-ol], the pest or weed control at 50 ppm fell in the range of 80 to 100%.
As to `OC(Cn1cnnn1)(c1ccc(Cl)cc1F)C(F)(F)c1ccc(C2CC2)cn1` (stereo not drawn) [Compound 40, 2-(4-Chloro-2-fluorophenyl)-1-(5-cyclopropylpyridin-2-yl)-1,1-difluoro-3-(1H-tetrazol-1-yl)propan-2-ol], the pest or weed control at 50 ppm fell in the range of 80 to 100%.
For `OC(Cn1cnnn1)(c1ccc(F)cc1F)C(F)(F)c1ccc(CCCOCC(F)(F)F)cn1` (stereo not drawn) [Compound 45, 2-(2,4-Difluorophenyl)-1,1-difluoro-3-(1H-tetrazol-1-yl)-1-(5-(3-(2,2,2-trifluoroethoxy)propyl)pyridin-2-yl)propan-2-ol] the value was 80 to 100%; for `CCOC/C=C/c1ccc(C(F)(F)C(O)(Cn2cnnn2)c2ccc(F)cc2F)nc1` (stereo not drawn) [Compound 51, (E)-2-(2,4-Difluorophenyl)-1-(5-(3-ethoxyprop-1-en-1-yl)pyridin-2-yl)-1,1-difluoro-3-(1H-tetrazol-1-yl)propan-2-ol], less than 40%; for `CCOC/C=C\c1ccc(C(F)(F)C(O)(Cn2cnnn2)c2ccc(F)cc2F)nc1` (stereo not drawn) [Compound 52, (Z)-2-(2,4-Difluorophenyl)-1-(5-(3-ethoxyprop-1-en-1-yl)pyridin-2-yl)-1,1-difluoro-3-(1H-tetrazol-1-yl)propan-2-ol], less than 40%.
The figure for `CCOCCCc1ccc(C(F)(F)C(O)(Cn2cnnn2)c2ccc(F)cc2F)nc1` (stereo not drawn) [Compound 53, 2-(2,4-Difluorophenyl)-1-(5-(3-ethoxypropyl)pyridin-2-yl)-1,1-difluoro-3-(1H-tetrazol-1-yl)propan-2-ol] is 80 to 100%; for `CC(C)OC/C=C/c1ccc(C(F)(F)C(O)(Cn2cnnn2)c2ccc(F)cc2F)nc1` (stereo not drawn) [Compound 54, (E)-2-(2,4-Difluorophenyl)-1,1-difluoro-1-(5-(3-isopropoxyprop-1-en-1-yl)pyridin-2-yl)-3-(1H-tetrazol-1-yl)propan-2-ol] it is less than 40%.
The figure for `OC(Cn1cnnn1)(c1ccc(F)cc1F)C(F)(F)c1ccc(CC2CC2)cn1` (stereo not drawn) [Compound 59, 1-(5-(Cyclopropylmethyl)pyridin-2-yl)-2-(2,4-difluorophenyl)-1,1-difluoro-3-(1H-tetrazol-1-yl)propan-2-ol] is 80 to 100%.
On to `OC(Cn1cnnn1)(c1ccc(Cl)cc1F)C(F)(F)c1ccc(CC2CC2)cn1` (stereo not drawn) [Compound 60, 7-(4-Chloro-fluorophenyl)-1-(5-(cyclopropylmethyl)pyridin-2-yl)-1,1-difluoro-3-(1H-tetrazol-1-yl)propan-2-ol], for which the pest or weed control at 50 ppm lay within 80 to 100%.
With `O=C(c1ccc(C(F)(F)F)cc1)c1ccc(C(F)(F)C(O)(Cn2cnnn2)c2ccc(F)cc2F)nc1` (stereo not drawn) [Compound 66, (6-(2-(2,4-Difluorophenyl)-1,1-difluoro-2-hydroxy-3-(1H-tetrazol-1-yl)propyl)pyridin-3-yl)(4-(trifluoromethyl)phenyl)methanone], the pest or weed control at 50 ppm fell in the range of 80 to 100%.
For `O=C(c1ccc(Cl)cc1)c1ccc(C(F)(F)C(O)(Cn2cnnn2)c2ccc(F)cc2F)nc1` (stereo not drawn) [Compound 67, (4-Chlorophenyl)(6-(2-(2,4-difluorophenyl)-1,1-difluoro-2-hydroxy-3-(1H-tetrazol-1-yl)propyl)pyridin-3-yl)methanone] the value was 80 to 100%.
The figure for `O=C(c1ccc(OCC(F)(F)F)cc1)c1ccc(C(F)(F)C(O)(Cn2cnnn2)c2ccc(F)cc2F)nc1` (stereo not drawn) [Compound 68, (6-(2-(2,4-Difluorophenyl)-1,1-difluoro-2-hydroxy-3-(1H-tetrazol-1-yl)propyl)pyridin-3-yl)(4-(2,2,2-trifluoroethoxy)phenyl)methanone] is 80 to 100%; for `O=C(c1ccc(F)cc1)c1ccc(C(F)(F)C(O)(Cn2cnnn2)c2ccc(F)cc2F)nc1` (stereo not drawn) [Compound 69, (6-(2-(2,4-Difluorophenyl)-1,1-difluoro-2-hydroxy-3-(1H-tetrazol-1-yl)propyl)pyridin-3-yl)(4-fluorophenyl)methanone] it is 80 to 100%.
For `O=C(c1ccc(C(F)(F)C(O)(Cn2cnnn2)c2ccc(F)cc2F)nc1)c1ccc(Cl)c(F)c1` (stereo not drawn) [Compound 71, (4-Chloro-3-fluorophenyl)(6-(2-(2,4-difluorophenyl)-1,1-difluoro-2-hydroxy-3-(1H-tetrazol-1-yl)propyl)pyridin-3-yl)methanone] the value was 80 to 100%.
